Reference: PMC6379637, “Consecutive influenza surveillance of neuraminidase mutations and neuraminidase inhibitor resistance in Japan” (Influenza and Other Respiratory Viruses, 2019)
“And” between values parts separate entries of the source, which are not always exact repeats. Equal values may be shown once. Read-outs that look alike come from different tables or passages of the source.

Experiments:
[1] = test system: A/H1N1pdm09 neuraminidase; assay type: biochemical, influenza A/H1N1pdm09 virus
A/H3N2 neuraminidase = assay type: biochemical, influenza A/H3N2 virus
[2] = test system: influenza B neuraminidase; assay type: biochemical, influenza B virus
[3] = read-out: IC50 (nM), second column without sub-head (median IC50 value)

CCC(CC)[C@H](NC(C)=O)[C@@H]1[C@H](O)[C@@H](C(=O)O)C[C@H]1N=C(N)N [Peramivir, peramivir hydrate]
reduced susceptibility class (RI/HRI, WHO criteria) [1]: RI (key: For A viruses, reduced inhibition (RI) was defined as a 10‐fold to 100‐fold increase in IC50 values; highly reduced inhibition (HRI) was defined as more than 100‐fold increase in IC50 values) | IC50 ([1]; read-out: median IC50 values): 0.3 nM and 0.5 nM and 0.4 nM | IC50 (A/H3N2 neuraminidase; read-out: IC50 (nM), median IC50 value (unheaded second column)): 1 nM | IC50 (A/H3N2 neuraminidase; [3]): 0.8 nM | IC50 (A/H3N2 neuraminidase; read-out: IC50 (nM), second unheaded column: median IC50 value): 0.7 nM | IC50 (A/H3N2 neuraminidase; read-out: median IC50 value): 0.7 nM | IC50 (A/H3N2 neuraminidase; read-out: median IC50 value (unheaded second column under IC50 (nM))): 0.7 nM | Fold change (IC50 / median IC50) [2]: 0.9 and 0.762 and 1.0 and 0.857 and 0.667 and 1.2 and 1.1 and 0.952 | Fold change (ratio of IC50 to the median IC50 value) [2]: 0.8 and 1.1 and 0.7 and 0.76 and 1.0 and 1.3 and 1.2 and 0.9 | IC50 ([2]; read-out: median IC50 values): 2.5 nM and 2.1 nM

CC(=O)N[C@H]1[C@H]([C@H](O)[C@H](O)CO)OC(C(=O)O)=C[C@@H]1N=C(N)N [Zanamivir, zanamivir hydrate]
IC50 (A/H3N2 neuraminidase; [3]): 2.2 nM | IC50 (A/H3N2 neuraminidase; read-out: median IC50 value): 1.6 nM | IC50 (A/H3N2 neuraminidase; read-out: median IC50 values): 2.4 nM

CCOC(=O)C1=C[C@@H](OC(CC)CC)[C@H](NC(C)=O)[C@@H](N)C1 [Oseltamivir, oseltamivir phosphate]
IC50 (A/H3N2 neuraminidase; read-out: median IC50 values): 1.1 nM
